Experimental data as given in ChEMBL document CHEMBL1201862, “PubChem BioAssay data set” (2004).
One block for each compound: values may come before it. The source made the active and inactive calls.

Legend:
Assay type in all cases: functional
[1] = molecular target: T1, High affinity choline transporter 1 (Homo sapiens, UniProt Q9GZV3); test: CHT inhibitors, dose response, cell-based, 5-point CRC, membrane potential dye (AID 504840)
T1 sequence (Q9GZV3 whole entry): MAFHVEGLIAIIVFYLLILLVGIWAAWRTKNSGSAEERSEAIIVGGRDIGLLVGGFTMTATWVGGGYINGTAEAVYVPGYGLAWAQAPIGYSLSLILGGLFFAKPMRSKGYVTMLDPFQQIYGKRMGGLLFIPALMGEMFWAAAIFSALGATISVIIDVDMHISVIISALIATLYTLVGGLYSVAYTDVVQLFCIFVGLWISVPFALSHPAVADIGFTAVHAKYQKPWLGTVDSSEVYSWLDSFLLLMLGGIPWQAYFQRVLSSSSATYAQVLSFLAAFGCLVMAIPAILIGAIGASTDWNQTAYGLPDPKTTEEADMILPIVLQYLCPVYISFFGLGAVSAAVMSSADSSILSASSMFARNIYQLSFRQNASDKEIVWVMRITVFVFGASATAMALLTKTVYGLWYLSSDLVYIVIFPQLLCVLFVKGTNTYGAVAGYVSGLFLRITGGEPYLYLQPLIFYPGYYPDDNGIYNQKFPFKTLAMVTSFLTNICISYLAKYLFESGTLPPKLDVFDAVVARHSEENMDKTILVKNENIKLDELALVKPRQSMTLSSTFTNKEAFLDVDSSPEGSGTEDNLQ

[2] = molecular target: T1, High affinity choline transporter 1; test: CHT inhibitors, dose response, cell-based, 10-point CRC, membrane potential dye (AID 588401);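 further: membrane potential dye fluorescence of choline-evoked depolarization via CHT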
[3] = molecular target: Fibroblast growth factor receptor 1 (Homo sapiens, UniProt P11362)
[4] = molecular target: Receptor-type tyrosine-protein kinase FLT3 (Homo sapiens, UniProt P36888);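 further: FLT3 was tested as one member of a kinome-wide kinase panel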
[5] = molecular target: Dual specificity protein kinase CLK4 (Homo sapiens, UniProt Q9HAZ1)
CHO-K1 = test: (§1) Counterscreen for antagonists of the orexin 1 receptor (OX1R; HCRTR1): Homogeneous time resolved fluorescence (HTRF)-based cell-based dose response assay to identify antagonists of the parental CHO-K1 cell line. [Related pubchem assays (depositor defined):AID434989, AID435008, AID463079, AID485270, AID492963, AID492964, AID492965, AID493232, AID504699, AID504701]; settings: Cricetulus griseus
[6] = as §1, with “Fluorescence-based” for “Homogeneous time resolved fluorescence (HTRF)-based”, “cell-based high throughput” for “cell-based”, “CHO” for “CHO-K1”
[7] = molecular target: T2, Orexin/Hypocretin receptor type 1 (Homo sapiens, UniProt O43613); test: Homogeneous Time Resolved Fluorescence (HTRF)-based cell-based high throughput dose response assay for antagonists of the orexin 1 receptor (OX1R; HCRTR1). [Related pubchem assays (depositor defined):AID434989, AID435008, AID463079, AID485270, AID492963, AID492964, AID492965, AID493232, AID504717, AID504718]
T2 sequence (O43613 whole entry): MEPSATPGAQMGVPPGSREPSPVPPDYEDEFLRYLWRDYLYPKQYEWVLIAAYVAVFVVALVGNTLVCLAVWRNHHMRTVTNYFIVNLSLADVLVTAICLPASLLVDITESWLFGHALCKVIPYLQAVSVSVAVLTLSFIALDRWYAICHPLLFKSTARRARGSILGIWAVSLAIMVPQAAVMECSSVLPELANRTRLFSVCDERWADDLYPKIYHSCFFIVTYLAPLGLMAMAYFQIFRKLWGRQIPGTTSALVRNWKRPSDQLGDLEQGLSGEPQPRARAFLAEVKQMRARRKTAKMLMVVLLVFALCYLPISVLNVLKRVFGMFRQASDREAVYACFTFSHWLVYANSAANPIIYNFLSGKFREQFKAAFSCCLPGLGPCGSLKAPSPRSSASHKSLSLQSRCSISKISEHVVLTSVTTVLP

[8] = molecular target: T2, Orexin/Hypocretin receptor type 1; test: Fluorescence-based cell-based high throughput dose response assay for antagonists of the orexin 1 receptor (OX1R; HCRTR1). [Related pubchem assays (depositor defined):AID434989, AID435008, AID463079, AID485270, AID492963, AID492964, AID492965, AID493232, AID504717, AID504718]
Orexin receptor type 2 [9] = molecular target: T3, Orexin receptor type 2 (Homo sapiens, UniProt O43614); test: Counterscreen assay for antagonists of the orexin 1 receptor (OX1R; HCRTR1): Fluorescence-based cell-based dose response assay for antagonists of the orexin 2 receptor (OX2R; HCRTR2), run by assay provider.
Orexin receptor type 2 [10] = molecular target: T3, Orexin receptor type 2; test: Counterscreen assay for antagonists of the orexin 1 receptor (OX1R; HCRTR1): Homogeneous Time Resolved Fluorescence (HTRF)-based cell-based dose response assay for antagonists of the orexin 2 receptor (OX2R; HCRTR2), run by assay provider.
[11] = molecular target: Cyclin-dependent kinase 8 (Homo sapiens, UniProt P49336); test: Navigating the Kinome. Panel member name: CDK8
[12] = molecular target: Leucine-rich repeat serine/threonine-protein kinase 2 (Homo sapiens, UniProt Q5S007);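 further: value from a broad kinome-wide panel profiling study in which LRRK2 was one of the kinases tested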
[13] = molecular target: Vascular endothelial growth factor receptor 1 (Homo sapiens, UniProt P17948);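 further: measured within a kinome-wide profiling panel, FLT1 as the panel member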
[14] = molecular target: Serine/threonine-protein kinase PLK3 (Homo sapiens, UniProt Q9H4B4)
[15] = molecular target: RAC-gamma serine/threonine-protein kinase (Homo sapiens, UniProt Q9Y243)
[16] = molecular target: Serine/threonine-protein kinase PLK4 (Homo sapiens, UniProt O00444);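 further: PLK4 measured as one member of a kinome-wide kinase profiling panel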
[17] = molecular target: Serine/threonine-protein kinase pim-1 (Homo sapiens, UniProt P11309)
Insulin receptor = Insulin receptor (Homo sapiens, UniProt P06213);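 further: insulin receptor kinase tested as one member of a kinome-wide kinase panel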
[18] = molecular target: Serine/threonine-protein kinase pim-3 (Homo sapiens, UniProt Q86V86);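 further: value obtained as one member of a broad kinase panel profiling effort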
[19] = molecular target: Hepatocyte growth factor receptor (Homo sapiens, UniProt P08581);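 further: kinase panel profiling across the kinome, with MET as the panel member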
[20] = molecular target: Serine/threonine-protein kinase Chk1 (Homo sapiens, UniProt O14757);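 further: measured as one member of a kinome-wide kinase profiling panel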
[21] = molecular target: Vascular endothelial growth factor receptor 2 (Homo sapiens, UniProt P35968)
[22] = molecular target: RAC-alpha serine/threonine-protein kinase (Homo sapiens, UniProt P31749);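 further: AKT1 affinity measured as one member of a kinome-wide kinase profiling panel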
[23] = molecular target: Serine/threonine-protein kinase PLK1 (Homo sapiens, UniProt P53350);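 further: PLK1 measured as one member of a kinome-wide profiling panel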
[24] = molecular target: ALK tyrosine kinase receptor (Homo sapiens, UniProt Q9UM73);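 further: ALK tested as one member of a kinase panel screen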
[25] = molecular target: Cyclin-dependent kinase 19 (Homo sapiens, UniProt Q9BWU1); test: Navigating the Kinome. Panel member name: CDC2L6
[26] = molecular target: Mitogen-activated protein kinase 13 (Homo sapiens, UniProt O15264)
[27] = molecular target: High affinity nerve growth factor receptor (Homo sapiens, UniProt P04629);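 further: NTRK1 tested as one member of a kinome-wide profiling panel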
[28] = molecular target: BDNF/NT-3 growth factors receptor (Homo sapiens, UniProt Q16620);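 further: NTRK2 measured as one member of a broad kinome-wide kinase profiling panel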

Chain of Receptor-type tyrosine-protein kinase FLT3 (P36888 whole entry): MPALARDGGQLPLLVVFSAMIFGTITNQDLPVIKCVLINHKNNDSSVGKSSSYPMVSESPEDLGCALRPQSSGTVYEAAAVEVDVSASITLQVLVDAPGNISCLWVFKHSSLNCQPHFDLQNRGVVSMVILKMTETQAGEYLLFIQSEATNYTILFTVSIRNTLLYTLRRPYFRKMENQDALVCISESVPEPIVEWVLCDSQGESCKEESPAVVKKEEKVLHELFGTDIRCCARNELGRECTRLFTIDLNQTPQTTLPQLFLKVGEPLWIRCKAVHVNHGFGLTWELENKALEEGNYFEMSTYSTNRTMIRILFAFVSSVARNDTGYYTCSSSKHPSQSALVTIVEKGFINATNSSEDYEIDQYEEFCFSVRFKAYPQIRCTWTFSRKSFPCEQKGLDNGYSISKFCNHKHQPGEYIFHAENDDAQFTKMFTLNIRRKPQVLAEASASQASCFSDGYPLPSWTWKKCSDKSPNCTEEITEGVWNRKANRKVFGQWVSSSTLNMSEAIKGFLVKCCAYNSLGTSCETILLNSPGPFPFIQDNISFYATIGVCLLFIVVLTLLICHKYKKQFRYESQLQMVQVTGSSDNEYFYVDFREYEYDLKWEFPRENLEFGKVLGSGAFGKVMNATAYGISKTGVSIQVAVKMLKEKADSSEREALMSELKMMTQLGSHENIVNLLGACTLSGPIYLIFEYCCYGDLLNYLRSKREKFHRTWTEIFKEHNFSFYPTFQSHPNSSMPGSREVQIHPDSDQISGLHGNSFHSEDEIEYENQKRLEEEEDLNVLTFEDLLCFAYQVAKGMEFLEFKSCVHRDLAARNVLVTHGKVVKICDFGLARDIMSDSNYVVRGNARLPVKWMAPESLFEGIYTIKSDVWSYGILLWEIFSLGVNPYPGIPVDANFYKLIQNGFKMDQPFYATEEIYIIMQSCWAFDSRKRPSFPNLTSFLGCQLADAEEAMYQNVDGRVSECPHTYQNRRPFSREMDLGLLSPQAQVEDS
T3 sequence (O43614 whole entry): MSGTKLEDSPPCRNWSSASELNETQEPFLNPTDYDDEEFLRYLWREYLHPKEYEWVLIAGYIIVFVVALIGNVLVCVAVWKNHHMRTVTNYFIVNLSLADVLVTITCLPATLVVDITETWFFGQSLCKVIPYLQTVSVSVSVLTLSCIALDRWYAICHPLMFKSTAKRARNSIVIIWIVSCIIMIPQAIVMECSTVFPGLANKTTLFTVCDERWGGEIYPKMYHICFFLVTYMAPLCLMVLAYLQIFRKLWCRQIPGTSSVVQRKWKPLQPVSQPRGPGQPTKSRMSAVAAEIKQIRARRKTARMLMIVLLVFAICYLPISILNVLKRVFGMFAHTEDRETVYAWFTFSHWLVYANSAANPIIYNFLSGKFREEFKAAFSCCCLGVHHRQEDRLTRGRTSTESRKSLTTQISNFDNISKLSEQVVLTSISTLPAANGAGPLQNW
Chain of Fibroblast growth factor receptor 1 (P11362 whole entry): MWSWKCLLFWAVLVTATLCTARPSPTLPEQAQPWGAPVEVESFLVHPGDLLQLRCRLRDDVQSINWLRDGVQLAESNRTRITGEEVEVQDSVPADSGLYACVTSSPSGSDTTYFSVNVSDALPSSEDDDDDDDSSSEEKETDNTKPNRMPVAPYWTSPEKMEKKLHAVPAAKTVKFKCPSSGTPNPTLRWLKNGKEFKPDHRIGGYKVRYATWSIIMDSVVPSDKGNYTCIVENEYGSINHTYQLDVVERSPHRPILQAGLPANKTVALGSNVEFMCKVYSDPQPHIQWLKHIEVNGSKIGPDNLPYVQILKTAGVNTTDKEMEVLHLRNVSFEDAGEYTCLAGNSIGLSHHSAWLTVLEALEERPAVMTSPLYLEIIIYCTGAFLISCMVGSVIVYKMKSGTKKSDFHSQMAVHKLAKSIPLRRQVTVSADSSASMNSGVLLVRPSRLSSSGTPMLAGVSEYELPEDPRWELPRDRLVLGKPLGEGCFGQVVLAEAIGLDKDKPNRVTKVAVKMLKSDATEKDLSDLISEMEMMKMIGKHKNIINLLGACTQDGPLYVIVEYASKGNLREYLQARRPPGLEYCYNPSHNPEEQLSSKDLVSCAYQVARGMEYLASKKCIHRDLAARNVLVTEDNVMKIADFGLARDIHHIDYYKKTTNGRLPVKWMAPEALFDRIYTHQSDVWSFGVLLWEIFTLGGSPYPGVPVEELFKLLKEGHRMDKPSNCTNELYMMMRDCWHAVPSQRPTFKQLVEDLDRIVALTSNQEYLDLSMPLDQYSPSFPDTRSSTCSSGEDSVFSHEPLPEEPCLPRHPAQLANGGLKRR
Chain of Insulin receptor (P06213 28-758 limits assumed): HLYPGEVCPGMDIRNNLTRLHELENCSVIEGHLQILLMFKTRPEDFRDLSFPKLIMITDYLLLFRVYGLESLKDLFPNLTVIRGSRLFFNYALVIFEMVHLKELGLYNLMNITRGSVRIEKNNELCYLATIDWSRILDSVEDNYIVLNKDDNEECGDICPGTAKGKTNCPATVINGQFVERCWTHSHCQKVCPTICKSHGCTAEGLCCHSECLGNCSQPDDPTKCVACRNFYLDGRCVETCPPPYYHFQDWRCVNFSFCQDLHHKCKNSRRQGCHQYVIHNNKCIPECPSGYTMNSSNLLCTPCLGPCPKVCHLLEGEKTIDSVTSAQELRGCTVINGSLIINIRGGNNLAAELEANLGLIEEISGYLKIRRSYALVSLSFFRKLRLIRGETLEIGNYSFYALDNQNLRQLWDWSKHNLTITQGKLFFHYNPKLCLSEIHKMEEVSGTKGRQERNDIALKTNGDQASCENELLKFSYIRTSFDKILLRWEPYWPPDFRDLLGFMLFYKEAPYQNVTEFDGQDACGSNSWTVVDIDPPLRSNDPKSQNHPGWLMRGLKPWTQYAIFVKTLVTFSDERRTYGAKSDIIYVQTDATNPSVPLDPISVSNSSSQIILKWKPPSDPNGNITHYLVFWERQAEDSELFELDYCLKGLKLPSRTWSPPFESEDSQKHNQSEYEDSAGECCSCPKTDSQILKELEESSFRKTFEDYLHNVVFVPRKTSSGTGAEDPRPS
Chain of Insulin receptor (P06213 763-1382 limits assumed): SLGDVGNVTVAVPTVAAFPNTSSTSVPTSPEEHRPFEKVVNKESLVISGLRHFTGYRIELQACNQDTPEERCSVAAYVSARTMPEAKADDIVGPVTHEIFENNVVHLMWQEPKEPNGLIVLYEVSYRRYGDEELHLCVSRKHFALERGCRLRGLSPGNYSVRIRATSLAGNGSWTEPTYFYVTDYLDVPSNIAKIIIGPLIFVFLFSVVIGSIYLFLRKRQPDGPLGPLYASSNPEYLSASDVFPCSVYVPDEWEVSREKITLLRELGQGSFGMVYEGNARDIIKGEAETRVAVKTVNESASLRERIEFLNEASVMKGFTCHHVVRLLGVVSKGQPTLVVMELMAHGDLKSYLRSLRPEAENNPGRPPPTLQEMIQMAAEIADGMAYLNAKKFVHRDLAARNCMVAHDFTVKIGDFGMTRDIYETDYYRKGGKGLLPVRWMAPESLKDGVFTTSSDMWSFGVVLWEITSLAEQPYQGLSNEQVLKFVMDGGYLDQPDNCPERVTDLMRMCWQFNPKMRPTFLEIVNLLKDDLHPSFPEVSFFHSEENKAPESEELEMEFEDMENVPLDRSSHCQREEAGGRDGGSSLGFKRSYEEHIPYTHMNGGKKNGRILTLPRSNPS
Chain of Mitogen-activated protein kinase 13 (O15264 whole entry): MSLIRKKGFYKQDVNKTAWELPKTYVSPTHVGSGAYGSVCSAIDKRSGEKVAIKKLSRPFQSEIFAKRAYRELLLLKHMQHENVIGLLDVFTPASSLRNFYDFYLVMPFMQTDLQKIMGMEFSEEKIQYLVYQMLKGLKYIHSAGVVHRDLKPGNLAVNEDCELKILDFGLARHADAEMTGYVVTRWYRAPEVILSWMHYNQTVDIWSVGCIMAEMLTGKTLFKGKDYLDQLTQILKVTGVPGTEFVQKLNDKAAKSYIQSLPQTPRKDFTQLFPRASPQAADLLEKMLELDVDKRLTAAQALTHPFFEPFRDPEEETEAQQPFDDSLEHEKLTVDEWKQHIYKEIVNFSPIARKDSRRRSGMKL
Chain of RAC-gamma serine/threonine-protein kinase (Q9Y243 whole entry): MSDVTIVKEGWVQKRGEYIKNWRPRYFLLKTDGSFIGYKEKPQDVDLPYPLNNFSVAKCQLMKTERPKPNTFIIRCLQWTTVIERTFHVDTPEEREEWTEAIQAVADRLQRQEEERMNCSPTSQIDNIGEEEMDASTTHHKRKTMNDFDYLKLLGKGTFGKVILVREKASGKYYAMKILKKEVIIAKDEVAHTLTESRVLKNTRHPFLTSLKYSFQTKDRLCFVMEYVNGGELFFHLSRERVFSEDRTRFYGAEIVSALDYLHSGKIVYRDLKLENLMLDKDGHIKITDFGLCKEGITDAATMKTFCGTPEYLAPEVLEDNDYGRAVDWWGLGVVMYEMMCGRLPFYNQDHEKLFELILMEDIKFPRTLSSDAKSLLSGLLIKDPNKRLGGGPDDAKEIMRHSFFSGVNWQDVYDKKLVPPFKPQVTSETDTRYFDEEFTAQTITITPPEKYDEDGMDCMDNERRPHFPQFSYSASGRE
Chain of Serine/threonine-protein kinase Chk1 (O14757 whole entry): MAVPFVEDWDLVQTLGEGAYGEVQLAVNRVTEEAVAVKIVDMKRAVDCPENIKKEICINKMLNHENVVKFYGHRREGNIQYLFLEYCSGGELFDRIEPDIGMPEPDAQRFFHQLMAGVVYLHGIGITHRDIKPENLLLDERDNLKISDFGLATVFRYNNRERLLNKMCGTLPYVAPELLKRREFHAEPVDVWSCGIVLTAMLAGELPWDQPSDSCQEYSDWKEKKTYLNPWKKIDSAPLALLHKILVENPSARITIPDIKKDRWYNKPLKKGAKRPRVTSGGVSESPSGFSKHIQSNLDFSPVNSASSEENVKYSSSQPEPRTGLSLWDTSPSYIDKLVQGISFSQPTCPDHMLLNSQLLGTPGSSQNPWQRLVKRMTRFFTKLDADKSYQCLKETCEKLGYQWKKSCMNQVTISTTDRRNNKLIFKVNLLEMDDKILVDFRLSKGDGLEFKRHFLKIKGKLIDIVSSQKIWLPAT

SMILES: CC(C)(C)c1ccc2nc(-c3n[nH]c4ccc(Br)cc34)[nH]c2c1
- Ki [3]: 3.16 µM (active)
- Ki [4]: 2.51 µM (active)
- Ki [5]: 1.26 µM (active)

SMILES: Sc1nnc(-c2cc(-c3ccccc3)[nH]n2)n1/N=C/c1cccs1
- IC50 (CHO-K1): > 66.2 µM (inactive)
- IC50 [6]: > 49.7 µM (inactive)
- IC50 [7]: 8.08 µM (active)
- IC50 [8]: > 49.7 µM (inactive)
- IC50 (Orexin receptor type 2 [9]): > 88.8 µM (inactive)
- IC50 (Orexin receptor type 2 [10]): > 50 µM (inactive)

SMILES: COc1ccc(CNC(=O)c2sc3nc(C)cc(C)c3c2N)cc1
- Ki [12]: 1 µM (active)
- Ki [13]: 3.16 µM (active)

SMILES: Nc1n[nH]c2c(Cl)cccc12
- Ki [14]: 10 µM (active)
- Ki [15]: > 100 µM (inactive)
- Ki [16]: > 39.8 µM (inactive)
- Ki [17]: > 100 µM (inactive)
- Ki [3]: > 50.1 µM (inactive)
- Ki (Insulin receptor): > 50.1 µM (inactive)
- Ki [18]: > 79.4 µM (inactive)
- Ki [19]: > 31.6 µM (inactive)
- Ki [4]: 2.51 µM (active)
- Ki [20]: 25.1 µM (active)
- Ki [21]: > 79.4 µM (inactive)
- Ki [22]: > 79.4 µM (inactive)
- Ki [23]: > 79.4 µM (inactive)

SMILES: COc1ccc(COc2ccc(Cc3cnc(N)nc3N)cc2OC)cc1 [GW632580X]
- Ki [27]: 1.58 µM (active)
- Ki [28]: 0.158 µM (active)

More lines, now with the values ahead:

- IC50 [1]: 10.3 µM (active)
- IC50 [2]: 10.8 µM (active)
SMILES: Cc1ccc(C)[n+](CC(=O)c2ccc(-c3ccccc3)cc2)c1

- Ki [11]: 3.16 µM (active)
SMILES: O=C(O)C1CN(Cc2ccc(CCc3cccc(C(F)(F)F)c3)cc2)C1

- Ki [24]: 0.0631 µM (active)
- Ki [25]: 1 µM (active)
SMILES: Cn1cc(Nc2ncc(Br)c(Nc3ccccc3Cl)n2)cn1

- Ki [26]: > 7.94 µM (inactive)
SMILES: CS(=O)(=O)Nc1cc2c(cc1Cl)NC(=O)Nc1cnc(C#N)c(n1)OCCCCCO2
